Reference: patent publication US3982931A, “N,N-di-sec.butyl-benzamide herbicides” (priority 1967, dated 1976)

Legend:
[1] = system: artemisia vulgaris L.; test: herbicidal activity, soil treatment one day after sowing; assay type: in vivo
Excerpt: (§1) The infesting species and the agrarian species have been indicated in Table 1 by letters, as follows:
B = artemisia vulgaris L.
(§2) Method of evaluation of the results (of tests):
(§3) 1 slight differences with respect to the control;
(§4) 3 = considerable activity with damages that definitely impair the further development of most of the small plants; an activity degree already useful for practical purposes;
(§5) 4 = maximum of activity with lack of germination or total containment of the small plants in the emerging stage.
(§6) In the case of an intermediate activity between two classes of the scale, both values are recorded with the one which corresponds to the preeminent activity preceding.
(§7) TABLE 2 reports the activity data of other compounds that fall within the class which is the object of this invention.
(§8) TABLE 3 reports data on the herbicidal activity against infesting herbs, while TABLE 4 reports data concerning the activity on useful species of agricultural cultivations. These tables employ the criterion explained previously. […]

[2] = system: chenopodium album L.; test: as above; assay type: in vivo
Excerpt: as §1, §2, §3, §4, §5, §6, §7, §8

[3] = system: setaria glauca L.; test: as above; assay type: in vivo
Excerpt: as §1, §2, §3, §4, §5
(§9) In the case of an intermediate activity between two classes of the scale, both values are recorded with the one which corresponds to the preeminent activity preceding. […]
as §8

[4] = system: vicia sativa L.; test: as above; assay type: in vivo
Excerpt: as §1, §2, §3, §4, §5, §6, §7

[5] = system: avena sativa (oats); test: activity on agrarian species, soil treatment one day after sowing; assay type: in vivo, Avena sativa L.; settings: in vivo
Excerpt: as §1, §2
(§10) 0 = no activity and no difference with respect to the control;
as §3, §4, §5, §6, §7
(§11) TABLE 3 reports data on the herbicidal activity against infesting herbs, while TABLE 4 reports data concerning the activity on useful species of agricultural cultivations. These tables employ the criterion explained previously. The product was spread on the soil one day after sowing, in quantities of 1, 3, 6, 8, 10, 12 and 14 kg/ha.

[6] = system: phaseolus vulgaris (bean); test: as above; assay type: in vivo, Phaseolus vulgaris L.; settings: in vivo
Excerpt: as §1
I = phaseolus vulgaris (bean)
as §2, §10, §3, §4, §5, §6, §7, §11

[7] = system: pisum sativum L. (pea); test: as above; assay type: in vivo; settings: in vivo
Excerpt: as §1
L = pisum sativum L. (pea)
as §2, §10, §3, §4, §5, §6, §7, §8

[8] = system: triticum vulgare L. (wheat); test: as above; assay type: in vivo; settings: in vivo
Excerpt: as §1
N = triticum vulgare L. (wheat)
as §2, §10, §3, §4, §5, §6, §7, §11

[9] = system: zea mais L. (corn); test: as above; assay type: in vivo; settings: in vivo
Excerpt: as §1, §2, §10, §3, §4, §5, §6, §7, §11

[10] = system: oryza sativa L. (rice); test: as above; assay type: in vivo; settings: in vivo
Excerpt: as §1
P = oryza sativa L. (rice)
as §2, §10, §3, §4, §5, §6, §7, §11

[11] = system: amaranthus retroflexus L.; test: herbicidal activity, soil treatment one day after sowing; assay type: in vivo
Excerpt: as §1
A = amaranthus retroflexus L.
as §2, §3, §4, §5, §6, §7, §8

[12] = system: echinocloa crus-galli R.S.; test: as above; assay type: in vivo
Excerpt: as §1
D = echinocloa crus-galli R.S.
as §2, §3, §4, §5, §6, §7, §8

[13] = system: solanum Lycopersicum L.; test: activity on agrarian species, soil treatment one day after sowing; assay type: in vivo; settings: in vivo
Excerpt: as §1
M = solanum Lycopersicum L.
as §2, §10, §3, §4, §5, §9

[14] = system: beta vulgaris L. (sugar-beet); test: as above; assay type: in vivo; settings: in vivo
Excerpt: as §1
H = beta vulgaris L. (sugar-beet)
as §2, §10, §3, §4, §5, §6, §7, §11

| Compound | activity on G, 0-4 scale [5] | activity on I, 0-4 scale [6] | activity on L, 0-4 scale [7] | activity on N, 0-4 scale [8] | activity on O, 0-4 scale [9] | activity on P, 0-4 scale [10] | activity on B, 0-4 scale ([1]; 6 kg/ha) | activity on C, 0-4 scale ([2]; 6 kg/ha) | activity on E, 0-4 scale ([3]; 6 kg/ha) | activity on F, 0-4 scale ([4]; 6 kg/ha) | activity on A, 0-4 scale ([11]; 2 kg/ha) | activity on A, 0-4 scale ([11]; 4 kg/ha) | activity on A, 0-4 scale ([11]; 6 kg/ha) | activity on B, 0-4 scale ([1]; 4 kg/ha) | activity on C, 0-4 scale ([2]; 2 kg/ha) | activity on C, 0-4 scale ([2]; 4 kg/ha) | activity on D, 0-4 scale ([12]; 2 kg/ha) | activity on D, 0-4 scale ([12]; 4 kg/ha) | activity on D, 0-4 scale ([12]; 6 kg/ha) | activity on E, 0-4 scale ([3]; 2 kg/ha) | other results |
| --- | --- | --- | --- | --- | --- | --- | --- | --- | --- | --- | --- | --- | --- | --- | --- | --- | --- | --- | --- | --- | --- |
| CCC(C)N(C(=O)c1ccc(Br)c(C)c1)C(C)CC (stereo not drawn) [PA481, 3-methyl,4-bromo-N,N-di-sec.butyl-benzamide] | 0 | 0 | 0 | 0 | 0 | 0 | 3 | 2-3 | 3-4 | 0-1 | – | – | – | – | – | – | – | – | – | – | – |
| CCC(C)N(C(=O)c1cc(Cl)c(Cl)cc1Cl)C(C)CC (stereo not drawn) [PA338, 2,4,5-trichloro-N,N-di-sec.butyl-benzamide] | 0 | 0 | 0 | 0 | 0 | 0 | 1-2 | 2 | 3-4 | 0-1 | – | – | 2 | – | – | – | 2-3 | 3 | 3-4 | 2-3 | activity on E, 0-4 scale ([3]; 4 kg/ha): 3 |
| CCC(C)N(C(=O)c1ccc(Cl)c(Cl)c1Cl)C(C)CC (stereo not drawn) [PA488, 2,3,4-trichloro-N,N-di-sec.butyl-benzamide] | 0 | 0 | 0 | 0 | – | 0 | – | 3 | 4 | 0 | 0 | 1 | 3-4 | 0-1 | 1-2 | 3 | 3-4 | 4 | 4 | – | activity on B, 0-4 scale ([1]; 2 kg/ha): 0; activity on D, 0-4 scale ([12]; 1 kg/ha): 2; activity on E, 0-4 scale ([3]; 4 kg/ha): 4; activity on F, 0-4 scale ([4]; 2 kg/ha): 0; activity on F, 0-4 scale ([4]; 4 kg/ha): 0 |
| CCCCN(C(=O)c1ccc(Cl)c(Cl)c1)C(C)CC (stereo not drawn) [PA514, 3,4-dichloro-N-n.butyl,N-sec.butyl-benzamide] | 0 | 0 | 0 | 0 | 0 | 0 | 0-1 | 2 | – | 0-1 | – | – | 1 | – | – | – | 1 | 2-3 | 3 | 2 | activity on E, 0-4 scale ([3]; 4 kg/ha): 3; activity on M, 0-4 scale [13]: 0 |

The next lines start with results.

| activity on G, 0-4 scale [5] | activity on I, 0-4 scale [6] | activity on L, 0-4 scale [7] | activity on N, 0-4 scale [8] | activity on O, 0-4 scale [9] | activity on P, 0-4 scale [10] | Compound | activity on B, 0-4 scale ([1]; 6 kg/ha) | activity on C, 0-4 scale ([2]; 6 kg/ha) | activity on E, 0-4 scale ([3]; 6 kg/ha) | activity on F, 0-4 scale ([4]; 6 kg/ha) | activity on A, 0-4 scale ([11]; 2 kg/ha) | activity on A, 0-4 scale ([11]; 4 kg/ha) | activity on A, 0-4 scale ([11]; 6 kg/ha) | activity on B, 0-4 scale ([1]; 4 kg/ha) | activity on C, 0-4 scale ([2]; 2 kg/ha) | activity on C, 0-4 scale ([2]; 4 kg/ha) | activity on D, 0-4 scale ([12]; 2 kg/ha) | activity on D, 0-4 scale ([12]; 4 kg/ha) | activity on D, 0-4 scale ([12]; 6 kg/ha) | activity on E, 0-4 scale ([3]; 2 kg/ha) | other results |
| --- | --- | --- | --- | --- | --- | --- | --- | --- | --- | --- | --- | --- | --- | --- | --- | --- | --- | --- | --- | --- | --- |
| 0 | 0 | 0 | 0 | 0 | 0 | CCC(C)N(C(=O)c1ccc(C)c(Cl)c1)C(C)CC (stereo not drawn) [PA445, 3-chloro,4-methyl-N,N-di-sec.butyl-benzamide] | 3-4 | 4 | 4 | 0-1 | 0-1 | 1 | 2 | 2 | 1 | 2-3 | 3 | 3-4 | 4 | 3-4 | activity on B, 0-4 scale ([1]; 2 kg/ha): 1; activity on F, 0-4 scale ([4]; 2 kg/ha): 0; activity on F, 0-4 scale ([4]; 4 kg/ha): 0; activity on M, 0-4 scale [13]: 0 |
| 0 | 0 | 0 | 0 | 0 | 0 | CCC(C)N(C(=O)c1cccc(I)c1)C(C)CC (stereo not drawn) [PA491, 3-iodo-N,N-di-sec.butyl-benzamide] | 4 | 3-4 | 4 | 1 | 1 | 1-2 | 3-4 | 3 | 2 | 2-3 | 3 | – | 4 | 3 | activity on B, 0-4 scale ([1]; 2 kg/ha): 1; activity on F, 0-4 scale ([4]; 2 kg/ha): 0; activity on F, 0-4 scale ([4]; 4 kg/ha): 0 |
| 1 | 1-0 | 2 | 2-3 | 0-1 | 2 | CCN(CC)C(=O)c1cccc(Cl)c1 [PA321, 3,chloro-N,N-diethyl-benzamide, reference compound] | 2 | 1-2 | 1 | 1 | – | – | 1-2 | – | – | – | – | – | 1 | – | – |
| 0 | 0 | 0 | 0 | 0 | 0 | CCC(C)N(C(=O)c1cc(Cl)ccc1Cl)C(C)CC (stereo not drawn) [PA412, 2,5-dichloro-N,N-di-sec.butyl-benzamide] | 2 | 2-3 | 4 | 0 | – | – | 3 | – | – | – | 3 | – | 4 | 3 | activity on A, 0-4 scale ([11]; 3 kg/ha): 2; activity on B, 0-4 scale ([1]; 3 kg/ha): 1; activity on C, 0-4 scale ([2]; 3 kg/ha): 1-2; activity on D, 0-4 scale ([12]; 1 kg/ha): 1-2; activity on D, 0-4 scale ([12]; 3 kg/ha): 3-4; activity on E, 0-4 scale ([3]; 1 kg/ha): 3; activity on E, 0-4 scale ([3]; 3 kg/ha): 4; activity on F, 0-4 scale ([4]; 3 kg/ha): 0; activity on M, 0-4 scale [13]: 1 |
| 0 | – | 0 | 0 | 0 | 0 | CCC(C)N(C(=O)c1cccc(Br)c1)C(C)CC (stereo not drawn) [PA337/3/Br, 3-bromo-N,N-di-sec.butyl-benzamide] | 3 | 4 | 4 | – | 1 | 2-3 | – | 1 | 1 | 3 | 2 | 4 | 4 | 2-3 | activity on E, 0-4 scale ([3]; 4 kg/ha): 4; activity on F, 0-4 scale ([4]; 2 kg/ha): 0-1; activity on H, 0-4 scale [14]: 1 |
